# In publication PMC7928264 (Journal of pharmacy & pharmaceutical sciences : a …, 2014):
# Counter-ions that a name gives are not always drawn. Like-named read-outs stand apart in the source and are kept apart here.
# Columns and labels:
# OCTs = settings: for Inhibition of tacrine uptake vs untreated control: 30 min pre-incubation, 1 μM tacrine 5 min, SCHs day 1
# OATPs = OATPs inhibition study with rifampicin on tacrine cellular accumulation; assay type: in vitro ADME, rat; settings: data not shown
# [1] = test system: sandwich-cultured primary rat hepatocytes (SCHs)
# [2] = test system: sandwich-cultured primary rat hepatocytes (SCHs); settings: 5 min, 1 μM
# [3] = test system: sandwich-cultured primary rat hepatocytes (SCHs); settings: 1 μM
# [4] = human, in vivo; cited from earlier work
# hepatic transaminase = settings: human, in vivo; cited from earlier work
# P-gp = settings: 5 μM valspodar, 1 μM tacrine, 10 min, SCHs day 4
smiles,measurement,setting,value
"CC[N+](CC)(CC)CC [TEA, tetraethylammonium chloride]",Inhibition of tacrine uptake vs untreated control,OCTs; inhibitor 300 μM,~ 18%
CN/C(=N/CCSCc1nc[nH]c1C)NC#N [cimetidine],Inhibition of tacrine uptake vs untreated control,OCTs; inhibitor 300 μM,> 50%
"COCCCC/C(=N\OCCN)c1ccc(C(F)(F)F)cc1 [fluvoxamine, Fluvoxamine maleate]",Inhibition of tacrine uptake vs untreated control,OCTs; inhibitor 50 μM,> 50%
CO[C@H]1/C=C/O[C@@]2(C)Oc3c(C)c(O)c4c(O)c(c(/C=N/N5CCN(C)CC5)c(O)c4c3C2=O)NC(=O)/C(C)=C\C=C\[C@H](C)[C@H](O)[C@@H](C)[C@@H](O)[C@@H](C)[C@H](OC(C)=O)[C@@H]1C [rifampicin],Effect on tacrine cellular accumulation,OATPs,did not alter tacrine cellular accumulation
"Nc1c2c(nc3ccccc13)CCCC2 [tacrine, 9-amino-1,2,3,4-tetrahydroacridine]",Time at which uptake reaches a plateau,"[1]; 1 μM tacrine, SCHs day 1",10 min
same,Uptake Vmax,"[1]; SCHs, day 1, saturable uptake (37°C minus 4°C), tacrine 0.1–500 μM",908±72 pmol/min/mg protein
same,Average uptake,[2]; pH 6.4,68±4 pmol/min/mg protein
same,Decrease in uptake compared to neutral pH (7.4),[2]; pH 6.4,approximately 3 fold
same,Average uptake,[2]; pH 7.4,405±16 pmol/min/mg protein
same,Average uptake,[2]; pH 8.4,816±62 pmol/min/mg protein
same,Increase in uptake compared to neutral pH (7.4),[2]; pH 8.6,~2 fold
same,Time of maximum biliary excretion,[3],10 min
same,BEI%,[3]; 10 min,22.9±1.9%
same,Oral bioavailability,[4],17–24%
same,Patients with significantly elevated hepatic transaminase concentrations,hepatic transaminase,25%
C/C=C/C[C@@H](C)C(=O)[C@H]1C(=O)N[C@@H](C(C)C)C(=O)N(C)CC(=O)N(C)[C@@H](CC(C)C)C(=O)N[C@@H](C(C)C)C(=O)N(C)[C@@H](CC(C)C)C(=O)N[C@@H](C)C(=O)N[C@H](C)C(=O)N(C)[C@@H](CC(C)C)C(=O)N(C)[C@@H](CC(C)C)C(=O)N(C)[C@@H](C(C)C)C(=O)N1C [valspodar],Reduction of tacrine BEI%,P-gp,approximately 60%
"COc1ccc(CCN(C)CCCC(C#N)(c2ccc(OC)c(OC)c2)C(C)C)cc1OC (stereo not shown) [verapamil, verapamil hydrochloride]",Inhibition of tacrine uptake vs untreated control,OCTs; inhibitor 50 μM,> 50%
same,Concentration giving maximal inhibition of tacrine uptake,"OCTs; verapamil tested at 10, 50 and 100 μM, concentration-dependent, P<0.001",100 µM
same,Reduction in tacrine uptake,"OCTs; verapamil, concentration not given, SCHs",3 fold
